From patent publication US20240216392A1, “METHODS OF TREAMENT” (Arena Pharmaceuticals, Inc., priority 2022, published 2024)
Read-outs that look alike come from different tables or passages of the source.

Assay: Phase 1 multiple-dose study, plasma PK
Format: in vivo, human
Conditions: for half-life / Tmax / Cmax / AUC: both sexes, human, plasma, oral; for AUC: read-out: Plasma AUCtau, geometric mean (geometric CV %)
Description: Subjects were enrolled to 1 of 2 dosage regimens. Subject enrollment was stratified by sex to ensure approximate sex balance in each cohort.
Morning doses were administered following a standard light breakfast (e.g., milk and cereal, toast, and fruit) on all days. TID dosing (three times a day) was approximately 8 hours apart. Subjects fasted from midnight onwards, until the morning breakfast each day. There was no fluid restriction during the study, but subjects should not have consumed excessive amounts of fluid on any day.
The Phase 1, open-label, multiple-dose study of Example 1 was conducted for Cohorts 1-3, 4A, and 4B.
Morning doses were administered following a standard light breakfast (e.g., milk and cereal, toast, and fruit) on all days. TID dosing (three times a day) was approximately 8 hours apart, and BID dosing (two times a day) was 12 hours apart. Subjects fasted from midnight onwards, until the morning breakfast each day. There was no fluid restriction during the study, but subjects were not to consume excessive amounts of fluid on any day.

In the case of `C[C@H]1CN2CCNCc3ccc(C(=O)NCC(F)F)c1c32` [Compound 1, (R)—N-(2,2-difluoroethyl)-7-methyl-1,2,3,4,6,7-hexahydro-[1,4]diazepino[6,7,1-hi]indole-8-carboxamide], the “average plasma concentrations over the dosing interval, comparability” value (Cohort 2 (12 mg TID) vs Cohort 4B (18 mg BID)) is reported as ~28%, the “Plasma Cavg, geometric mean (geometric CV %)” value (“Plasma Cavg … (geometric CV %)” for short) (Day 8, Cohort 1 (6 mg TID)) is reported as 9.947 (2.6843) ng/mL and the “Plasma Ctrough, geometric mean (geometric CV %)” value (Day 8, Cohort 1 (6 mg TID)) is reported as 5.150 (1.6616) ng/mL. For the same compound, the “Plasma Cavg … (geometric CV %)” value (Day 8, Cohort 2 (12 mg TID)) was 26.19 (14.697) ng/mL, the “Plasma Ctrough, geometric mean (geometric CV %)” value (Day 8, Cohort 2 (12 mg TID)) was 14.96 (9.9859) ng/mL and the “Plasma Cavg … (geometric CV %)” value (Day 8, Cohort 3 (12 mg BID)) was 14.42 (6.4875) ng/mL. The “Plasma Ctrough, geometric mean (geometric CV %)” value (Day 8, Cohort 3 (12 mg BID)) was 4.892 (2.8780) ng/mL, the “Plasma Cavg … (geometric CV %)” value (Day 8, Cohort 4A (15 mg BID)) was 16.64 (4.4047) ng/mL and the “Plasma Ctrough, geometric mean (geometric CV %)” value (Day 8, Cohort 4A (15 mg BID)) was 5.557 (2.3832) ng/mL. For the same compound, the “Plasma Cavg … (geometric CV %)” value (Day 8, Cohort 4B (18 mg BID)) was 20.62 (8.3690) ng/mL, the “Plasma Ctrough, geometric mean (geometric CV %)” value (Day 8, Cohort 4B (18 mg BID)) was 7.427 (3.4830) ng/mL and the “Plasma Cavg … (geometric CV %)” value (Day 9, Cohort 1 (6 mg TID)) was 11.03 (3.3822) ng/mL. The “Plasma Ctrough, geometric mean (geometric CV %)” value (Day 9, Cohort 1 (6 mg TID)) was 5.181 (1.9717) ng/mL, the “Plasma Cavg … (geometric CV %)” value (Day 9, Cohort 2 (12 mg TID)) was 27.22 (17.047) ng/mL and the “Plasma Ctrough, geometric mean (geometric CV %)” value (Day 9, Cohort 2 (12 mg TID)) was 14.74 (13.800) ng/mL. The “Plasma Cavg … (geometric CV %)” value (Day 9, Cohort 3 (12 mg BID)) was 14.85 (6.1228) ng/mL, the “Plasma Ctrough, geometric mean (geometric CV %)” value (Day 9, Cohort 3 (12 mg BID)) was 4.864 (2.7031) ng/mL and the “Plasma Cavg … (geometric CV %)” value (Day 9, Cohort 4A (15 mg BID)) was 17.84 (4.6403) ng/mL. The “Plasma Ctrough, geometric mean (geometric CV %)” value (Day 9, Cohort 4A (15 mg BID)) was 6.497 (2.3570) ng/mL, the “Plasma Cavg … (geometric CV %)” value (Day 9, Cohort 4B (18 mg BID)) was 22.23 (10.604) ng/mL and the “Plasma Ctrough, geometric mean (geometric CV %)” value (Day 9, Cohort 4B (18 mg BID)) was 7.066 (4.3229) ng/mL. For the same compound, the “Plasma Cavg … (geometric CV %)” value (Day 10, Cohort 1 (6 mg TID)) was 10.71 (2.8291) ng/mL, the “Plasma Ctrough, geometric mean (geometric CV %)” value (Day 10, Cohort 1 (6 mg TID)) was 5.730 (1.7982) ng/mL and the “Plasma Cavg … (geometric CV %)” value (Day 10, Cohort 2 (12 mg TID)) was 27.73 (18.586) ng/mL. The “Plasma Ctrough, geometric mean (geometric CV %)” value (Day 10, Cohort 2 (12 mg TID)) was 14.30 (11.743) ng/mL, the “Plasma Cavg … (geometric CV %)” value (Day 10, Cohort 3 (12 mg BID)) was 14.14 (6.2142) ng/mL and the “Plasma Ctrough, geometric mean (geometric CV %)” value (Day 10, Cohort 3 (12 mg BID)) was 3.951 (2.4984) ng/mL. The “Plasma Cavg … (geometric CV %)” value (Day 10, Cohort 4A (15 mg BID)) was 16.70 (5.0410) ng/mL, the “Plasma Ctrough, geometric mean (geometric CV %)” value (Day 10, Cohort 4A (15 mg BID)) was 4.372 ng/mL and the “Plasma Cavg … (geometric CV %)” value (Day 10, Cohort 4B (18 mg BID)) was 19.64 (6.8876) ng/mL. For the same compound, the “Plasma Ctrough, geometric mean (geometric CV %)” value (Day 10, Cohort 4B (18 mg BID)) was 5.185 (2.4429) ng/mL, the half-life (3 mg, Day 1, single 3 mg dose, Cohort 1, read-out: apparent terminal half-life (converted)) was 186 min and the Tmax (3 mg, Day 1, single 3 mg dose, Cohort 1, read-out: plasma Tmax, median) was 1 h. It also gave a Cmax (3 mg, Day 1, single 3 mg dose, Cohort 1, read-out: plasma geometric mean Cmax) of 4.7 ng/mL, a half-life (6 mg, Day 1, single 6 mg dose, Cohorts 2, 3, 4A, 4B, read-out: apparent terminal half-life (converted)) of 186 to 198 min and a Tmax (6 mg, Day 1, single 6 mg dose, Cohorts 2, 3, 4A, 4B, read-out: plasma Tmax, median) of 0.98 to 1.14 h. It also gave a Cmax (6 mg, Day 1, single 6 mg dose, Cohorts 2, 3, 4A, 4B, read-out: plasma geometric mean Cmax) of 7.8 to 12.4 ng/mL, an AUC (6 mg, Day 8, Cohort 1 (6 mg TID)) of 77.1 ng·h/mL and a Cmax (6 mg, Day 8, Cohort 1 (6 mg TID), read-out: Plasma Cmax, geometric mean (geometric CV %)) of 16.6 ng/mL. It also gave a half-life (6 mg, Day 8, Cohort 1 (6 mg TID), read-out: Plasma T1/2, mean (SD) (converted)) of 269 min, a Tmax (6 mg, Day 8, Cohort 1 (6 mg TID), read-out: Plasma Tmax, median (minimum, maximum)) of 1.54 h and an AUC (6 mg, Day 9, Cohort 1 (6 mg TID)) of 84.9 ng·h/mL. The Cmax (6 mg, Day 9, Cohort 1 (6 mg TID), read-out: Plasma Cmax, geometric mean (geometric CV %)) was 18.4 ng/mL, the half-life (6 mg, Day 9, Cohort 1 (6 mg TID), read-out: Plasma T1/2, mean (SD) (converted)) was 231 min and the Tmax (6 mg, Day 9, Cohort 1 (6 mg TID), read-out: Plasma Tmax, median (minimum, maximum)) was 0.94 h. It also gave an AUC (6 mg, Day 10, Cohort 1 (6 mg TID)) of 82.6 ng·h/mL, a Cmax (6 mg, Day 10, Cohort 1 (6 mg TID), read-out: Plasma Cmax, geometric mean (geometric CV %)) of 16.5 ng/mL and a half-life (6 mg, Day 10, Cohort 1 (6 mg TID), read-out: Plasma T1/2, mean (SD) (converted)) of 278 min. For the same compound, the Tmax (6 mg, Day 10, Cohort 1 (6 mg TID), read-out: Plasma Tmax, median (minimum, maximum)) was 1.03 h, the AUC (12 mg, Day 8, Cohort 2 (12 mg TID)) was 190 ng·h/mL and the Cmax (12 mg, Day 8, Cohort 2 (12 mg TID), read-out: Plasma Cmax, geometric mean (geometric CV %)) was 36.7 ng/mL.
